For four compounds, Activity results are on record in ChEMBL document CHEMBL1240391, “High prevalence of ST131 isolates producing CTX-M-15 and CTX-M-14 among extended-spectrum-beta-lactamase-producing Escherichia coli isolates from Canada” (2010).

Assay type in all cases: functional
Experiment [1] deals with Escherichia coli. As to the kind of experiment: Antimicrobial activity against Escherichia coli assessed as nonsusceptible isolates by CLSI method.
For experiment [2], the system named is Escherichia coli. As to the kind of experiment: Antimicrobial activity against CTX-M15/CTX-M14 ESBL producing Escherichia coli ST131 clonal complex isolate assessed as nonsusceptible isolates by CLSI method.
Experiment [3] has as its system Escherichia coli. The experiment can be described thus: Antimicrobial activity against ESBL producing Escherichia coli assessed as nonsusceptible isolates by CLSI method.

As for `NCC[C@H](O)C(=O)N[C@@H]1C[C@H](N)[C@@H](O[C@H]2O[C@H](CN)[C@@H](O)[C@H](O)[C@H]2O)[C@H](O)[C@H]1O[C@H]1O[C@H](CO)[C@@H](O)[C@H](N)[C@H]1O` [AMIKACIN], the figures for the Activity with Escherichia coli [1], in the experiment on Escherichia coli [2] and in the experiment with Escherichia coli [3] were 39%, 45% and 35%, respectively.
Turning to `O=C1CN(/N=C/c2ccc([N+](=O)[O-])o2)C(=O)N1` [NITROFURANTOIN], the Activity with Escherichia coli [1] turned out to be 8%; with Escherichia coli [2] it was 4%; in the experiment on Escherichia coli [3], 12%.
On the same counts, the results for `NC[C@H]1O[C@H](O[C@H]2[C@H](O)[C@@H](O[C@H]3O[C@H](CO)[C@@H](O)[C@H](N)[C@H]3O)[C@H](N)C[C@@H]2N)[C@H](N)C[C@@H]1O` [TOBRAMYCIN] are 69%, 93% and 49%.
On to GENTAMICIN, for which the Activity in the experiment with Escherichia coli [1] was 50%; in the experiment on Escherichia coli [2] it was 67%; in the experiment on Escherichia coli [3], 35%.
